What was measured:
[1] = test system: CD4+ T cells; assay: Exogenous autologous healthy donor restimulation assay, TNFα and IFNγ production by CD4+ T cells; format: cell-based, human; design: Frequency (TNFα+ IFNγ+ CD4 T cells): unit not given here; conditions: donor independent, peptide pool 10 μg/mL, healthy donors; for Fold change (CD4+) vs. DMSO: maximum CD4+ T-cell response (TNFα and IFNγ); for Frequency (TNFα+ IFNγ+ CD4 T cells): maximum CD4+ T-cell response
Protocol: (§1) Immunogenicity responses were measured by estimating TNFα IFNγ double positive cells in the CD4+ and/or CD8+ T-cell populations. A response is considered positive if TNFα IFNγ double positive fraction was greater than or equal to three-fold over unstimulated cells (DMSO negative control) with a minimum frequency >=0.01%. […]
(§2) Overlapping 15-mer peptides were designed to span each indicated neoantigen. Their ability to activate T cells was assessed using known methods, such as the assay defnied as exogenous autologous normal donor restimulation assay. The peptides were used as pools using TNFα and IFNγ production by CD8^+ and CD4^+ T cells as a readout. Maximum frequency of CD8^+TNFα^+IFNγ^+ and CD4^+TNFα^+IFNγ^+ T cells and maximum fold change over background for each pool of peptides were analyzed, which were calculated as the highest frequency of CD8^+ TNFα^+IFNγ^+ and CD4^+ TNFα^+IFNγ^+ T cells and resulting fold change across the normal donors evaluated for the peptide.
(§3) CD1c+Dendritic Cells (CD1c+DC) isolated from human healthy PBMCs were thawed using media (IMDM (Gibco) supplemented with glutamine, HEPES, 5% human serum (Sigma), and 1× Pen-Strep). DC cells were resuspended in media supplemented with IL-4 (Peprotech, 20 ng/mL) and GM-CSF (Gibco, 20 ng/mL), plated in 6 well microplates, and rested overnight at 37° C. and 5% CO2 incubator. The following day, DC cells were counted and plated in a 96 well round bottom microplate at a concentration of 30,000 viable cells per well. Lyophilized neoantigen peptide pools (15-mer peptides with 8-mer overlapping peptide sequences) were solubilized in 100% DMSO with a stock concentration of 20 mg/mL Neoantigen peptides pools were added to DCs for a final concentration of 10 μg/mL and rested for 2 hours at 37° C. and 5% CO2 incubator. CEF Peptide Pool “Plus” (Cellular Technologies, Ltd.) was utilized as a positive control (each viral peptide at a final concentration of 4 ug/ml) and DMSO at the same final concentration (0.05%) as the experimental peptides was utilized as a negative control. After 2 hours, DC cells were irradiated with 50 gray of ionizing radiation. Autologous CD3+ Pan-T cells isolated from human normal PBMCs were thawed using media. Following irradiation, autologous Pan-T cells were added to the irradiated DCs at 300,000 viable cells per well. Human IL-15 (Peprotech) was added to all wells at final concentration of 10 ng/ml. Plates were incubated at 37° C. and 5% CO2 incubator for a total of 12 days. Media was refreshed every 2-3 days with IL-15 (R&D System, 10 ng/mL final concentration) and IL-2 (R&D systems, 10 IU/mL final concentration).
(§4) On Day 11, cells were re-stimulated with identical experimental peptide pools or controls, at same concentration as peptide stimulation on Day 1. Protein Inhibitor Cocktail (eBioscience) was added to every well and plate was incubated overnight for 14-16 hours at 37° C. and 5% CO2 incubator. On Day 12, cells were stained for surface and intracellular flow cytometry analysis. The cells were washed with PBS and stained with Live/Dead Fixable Aqua Dead Cell stain (Thermo-Fisher). Following the live/dead stain, cells were blocked using Biotin-Free Fc Receptor Blocker (Accurate Chemical & Scientific Corp). Extracellular cellular flow panel (1 μL/antibody per well in 50 μL) consisted of CD3 PerCP-Cy5.5 (Biolegend), CD4 BV421 (Biolegend), and CD8 APC-Cy7 (Biolegend). After extracellular staining, cells were fixed and permeabilized using Foxp3/Transcription Factor Staining Buffer Set (eBioscience) and stained for intracellular proteins (1:50 dilution) using TNFα FITC (R&D Systems) and IFNγ BV785 (Biolegend). Cells were washed and resuspended in stain buffer, analyzed, and recorded in a BD Celesta flow cytometer.
(§5) Flow cytometry analysis was conducted on FlowJo v10.6 software. Cells were gated on live, singlet, CD3+, CD4+ and CD8+ T cells. The CD8+ and CD4+ T cells were analyzed for TNFα and IFNγ expression. […]

[2] = test system: CD8+ T cells; assay: Exogenous autologous healthy donor restimulation assay, TNFα and IFNγ production by CD8+ T cells; format: cell-based, human; design: Frequency (TNFα+ IFNγ+ CD8 T cells): unit not given here; conditions: for Fold change (CD8+) vs. DMSO: maximum CD8+ T-cell response (TNFα and IFNγ); for Fold change (CD8+) vs. DMSO / Frequency (TNFα+ IFNγ+ CD8 T cells): donor independent, peptide pool 10 μg/mL, healthy donors; for Frequency (TNFα+ IFNγ+ CD8 T cells): maximum CD8+ T-cell response; for Immunogenic (yes/no): positive if CD8+ and/or CD4+ double positive TNFα/IFNγ frequency >=3-fold over DMSO and at least 0.01%
Protocol: as §1, §2, §3, §4, §5

| Substance | Fold change (CD4+) vs. DMSO [1] | Frequency (TNFα+ IFNγ+ CD4 T cells) [1] | Fold change (CD8+) vs. DMSO [2] | Frequency (TNFα+ IFNγ+ CD8 T cells) [2] | Immunogenic (yes/no) [2] |
| --- | --- | --- | --- | --- | --- |
| SRAPIKMSVLGQGHSRCLLHCLCLVAPMAFPVRLRVPCGG [AS16, alternative splicing, CAMSAP1] | 15.062 | 0.011 | 8200 | 0.82 | Yes |
| LRYLIHLRKWKIK [FUS55, gene fusion FAM214A-> ARPP19] | 74.67 | 0.056 | 13.57 | 0.38 | Yes |
| FSMRPAFGETALGCKKW [AS19, alternative splicing, GABRR2] | 23.16 | 0.12 | 140 | 0.031 | Yes |
| WTRPEKQELNSSCCSLIL [AS120, alternative splicing, NCAM1] | 3.71 | 0.018 | 13.03 | 0.24 | Yes |
| ACGACGAGFFIKQKCIEQRESRSLS [FUS22, gene fusion IGLL5-> COMMD3-BMI1, BMI1] | 0.86 | 0.006 | 89.07 | 0.11 | Yes |
| PPTAAASQTCLELER [FUS21, gene fusion FOSB-> KLF6] | 8.08 | 0.023 | 4.24 | 0.04 | Yes |
| PKVFPKNQVISLIPKAQEDPEHT [AS127, alternative splicing, ST3GAL6] | 7.179 | 0.14 | 1.44 | 0.08 | Yes |
| DMEVFLKEASTNQHNTLIHLTLTFST [AS73, alternative splicing, SMC5] | 72.58 | 0.11 | 3 | 0.02 | Yes |
| AGDVLFIPGISLKVHKVQHSKVINICN [AS55, alternative splicing, TYW5] | 27.71 | 0.042 | 96.05 | 0.17 | Yes |
| QILQQALKKLPFSLCITECETIAYHLARDSNGNLEL [AS131, alternative splicing, USP25] | 10.53 | 0.008 | 299.44 | 0.53 | Yes |
| GEVKWSVGSRTSLLL [FUS38, gene fusion CD79B-> GH1] | 4.06 | 0.007 | 23.41 | 0.18 | Yes |
| ERSHSKKKDGLVRNDGPGFPPMFSTSENTNLD [AS54, alternative splicing, SETBP1] | 90.535 | 0.033 | 0.73 | 0.008 | Yes |
| RQLQQQLSSLSGPEGVPFLKLWCLDDLLSTLLGTCRCPSRAQF [FUS57, gene fusion MED12-> NLGN3] | 11.65 | 0.24 | 17.2 | 0.14 | Yes |
| FU524 (SGLEAIQRGYETFYSE) | 3.13 | 0.014 | 259.11 | 0.48 | Yes |
| CEIMPLQSYILL [AS37, alternative splicing, FAM13A] | 576.132 | 0.21 | 17.37 | 0.32 | Yes |
| PVILFKGKVRPIP [AS67, alternative splicing, MTMR14] | 8.57 | 0.071 | 28.23 | 0.52 | Yes |
| PPGGHSPQDLSIREIFCLGHKEVC [AS136, alternative splicing, ZNF592] | 10.86 | 0.07 | 5.91 | 0.072 | Yes |
| MDLTAIYEDSAGPLSHA [FUS54, gene fusion ZFP36-> PLEKHG2] | 9.66 | 0.063 | 15.176 | 2.58 | Yes |
| ISKRLKSRRRSGWQLNRAGNRGLSPGLGLFPRGCCRWGGAYTRLPSANQT [FUS20, gene fusion PTGES2-> SLC25A25-AS1] | 11.664 | 0.068 | 511.064 | 4.85 | Yes |
| ARHLLTLGTCGSTWP [FUS26, gene fusion P2RY6-> ARHGEF17] | 2.46 | 0.026 | 7.07 | 0.1 | Yes |
| PPTAAASQTMQIFVKT [FUS31, gene fusion FOSB-> UBC] | 0.7 | 0.004 | 14.72 | 0.022 | Yes |
| SSVTTHSSGNLRESPIYH [FUS32, gene fusion GANC-> CAPN3] | 3.08 | 0.008 | 12.04 | 0.018 | Yes |
| RHQENVHTVLVHGKVKGLFYI [AS125, alternative splicing, PRDM5] | 6.57 | 0.023 | 28.62 | 0.78 | Yes |
| AFIYHAFVGSTKTAWRTTL [FUS13, gene fusion KCNQ5-> KCNQ5-IT1] | 8.79 | 0.057 | 3.96 | 0.033 | Yes |
| DVAVICSGVPVADVS [FUS5, gene fusion CD5L-> FCRL1] | 6.97 | 0.021 | 4.59 | 0.079 | Yes |
